The record followed here is ChEMBL document CHEMBL1914304 (J Med Chem, 2011).

A short description of series [1]: Selectivity ratio of EC50 for human HepG2 cells to EC50 for Plasmodium falciparum.
The next series concerns HEK293. The series is described as follows: Cytotoxicity against human HEK293 cells after 72 hrs by luminescence assay. The class given is cell-based. Particulars: hek293, 72 h.
The next series concerns Raji. The series is described as follows: Cytotoxicity against human Raji cells after 72 hrs by luminescence assay. It counts as cell-based.
The test system of another series is BJ. The experiment in a line: Cytotoxicity against human BJ cells after 72 hrs by luminescence assay. The class given is cell-based.
The test system of another series is HepG2. The series is described as follows: Cytotoxicity against human HepG2 cells after 72 hrs by luminescence assay. Particulars: hepg2, 72 h. It counts as cell-based.

As for `Cc1cccc(N2CCN(CC(O)COc3ccccc3C(=O)CCc3ccccc3)CC2)c1.Cl` (racemic), the selectivity ratio in series [1] is above 10. The Activity entry in the series on HEK293, in the series on Raji, in the series with BJ and with HepG2 was “Non-toxic” in each case.

Take `Cc1cccc(N2CCN(CC(O)COc3ccc(F)cc3C(=O)CCc3ccccc3)CC2)c1.Cl` (racemic): the selectivity ratio in series [1] is above 10. Further, the Activity entry in the series on HEK293, in the series with Raji, in the series on BJ and with HepG2 was “Non-toxic” in each case.

On to `CCN1CCN(CC(O)COc2ccccc2C(=O)CCc2ccc(F)cc2)CC1.Cl` (racemic), for which the selectivity ratio in series [1] was above 10. Further, the Activity entry in the series with HEK293, in the series with Raji, in the series on BJ and in the series with HepG2 was “Non-toxic” each time.

Turning to `CCN(CC)CC(O)COc1ccccc1C(=O)CCc1ccccc1.Cl` (racemic), the selectivity ratio in series [1] is above 10. In addition, the Activity entry with HEK293, with Raji, in the series with BJ and with HepG2 was “Non-toxic” in each case.

Regarding `Cl.O=C(CCc1ccc(F)cc1)c1cc(F)ccc1OCC(O)CN(Cc1ccccc1)c1ccccc1` (racemic), the selectivity ratio in series [1] is above 10. Moreover, the Activity entry with HEK293, in the series on Raji, with BJ and with HepG2 was “Non-toxic” throughout.

For the molecule `Cl.O=C(CCc1ccc(F)cc1)c1cc(F)ccc1OCC1CO1` (racemic), the selectivity ratio in series [1] was above 10. The Activity result in the series on HEK293, with Raji, in the series with BJ and in the series with HepG2 was “Non-toxic” in each case.

With `Cc1ccc(N2CCN(CC(O)COc3ccccc3C(=O)CCc3ccc(F)cc3)CC2)cc1.Cl` (racemic), the selectivity ratio in series [1] was above 10. Moreover, the Activity entry in the series with HEK293, in the series with Raji, in the series on BJ and in the series with HepG2 was “Non-toxic” each time.

As to `Cl.O=C(CCc1ccccc1)c1ccccc1OCC(O)CN1CCN(C(=O)c2ccccc2)CC1` (racemic), the selectivity ratio in series [1] is above 10. Also, the Activity result with HEK293, in the series with Raji, in the series on BJ and in the series with HepG2 was “Non-toxic” in each case.

On to `Cl.O=C(CCc1ccccc1)c1ccccc1OCC(O)CN1CCC(c2ccc(Cl)cc2)CC1` (racemic), for which the selectivity ratio in series [1] was above 10. Besides, the Activity entry with HEK293, with Raji, in the series with BJ and in the series with HepG2 was “Non-toxic” in each case.

Regarding `Cl.O=C(CCc1ccccc1)c1ccccc1OCC(O)CN1CCN(c2ccccc2)CC1` (racemic), in series [1], the selectivity ratio is above 10. Moreover, the Activity entry with HEK293, with Raji, with BJ and in the series on HepG2 was “Non-toxic” each time.

As for `Cl.O=C(CCc1ccccc1)c1ccccc1OCC1CO1` (racemic), the selectivity ratio in series [1] is above 10. The Activity result with HEK293, with Raji, in the series with BJ and in the series on HepG2 was “Non-toxic” throughout.

For `Cl.O=C(CCc1ccc(F)cc1)c1cc(F)ccc1OCC(O)CN1CCC(Cc2ccccc2)CC1` (racemic), the selectivity ratio in series [1] is above 10. The Activity result with HEK293, in the series with Raji, in the series with BJ and in the series with HepG2 was “Non-toxic” in each case.

Take `Cc1cccc([N+]2(c3ccccc3)CCN(CC(O)COc3ccccc3C(=O)CCc3ccc(F)cc3)CC2)c1.[Cl-]` (racemic): in series [1], the selectivity ratio was above 10. For the same molecule, the Activity entry in the series with HEK293, with Raji, in the series on BJ and with HepG2 was “Non-toxic” throughout.

For `CN(CCc1ccccc1)CC(O)COc1ccc(F)cc1C(=O)CCc1ccccc1.Cl` (racemic), in series [1], the selectivity ratio was above 10. Besides, the Activity entry with HEK293, with Raji, with BJ and with HepG2 was “Non-toxic” each time.

In the case of `Cc1ccccc1N1CCN(CC(O)COc2ccc(F)cc2C(=O)CCc2ccccc2)CC1.Cl` (racemic), in series [1], the selectivity ratio is above 10. Also, the Activity result with HEK293, in the series with Raji, in the series on BJ and with HepG2 was “Non-toxic” throughout.

On to `Cl.Nc1ccc(N2CCN(CC(O)COc3ccc(F)cc3C(=O)CCc3ccccc3)CC2)cc1` (racemic), for which the selectivity ratio in series [1] was above 10. The Activity result with HEK293, with Raji, in the series on BJ and in the series on HepG2 was “Non-toxic” in each case.

On to `Cl.O=C(CCc1ccccc1)c1cc(F)ccc1OCC(O)CN1CCN(c2ccc(Cl)c(Cl)c2)CC1` (racemic), for which the selectivity ratio in series [1] is above 10. The Activity entry in the series with HEK293, in the series on Raji, in the series on BJ and in the series with HepG2 was “Non-toxic” each time.

Consider `Cl.O=C(CCc1ccc(F)cc1)c1cc(F)ccc1OCC(O)CN1CCN(c2ccccc2F)CC1` (racemic), for which the selectivity ratio in series [1] was above 10. The Activity result in the series with HEK293, with Raji, in the series on BJ and in the series with HepG2 was “Non-toxic” each time.

In the case of `Cl.O=C(CCc1ccccc1)c1ccccc1OCC(O)CN1CCN(Cc2ccccc2)CC1` (racemic), the selectivity ratio in series [1] is above 10. The Activity result with HEK293, with Raji, in the series on BJ and in the series on HepG2 was “Non-toxic” in each case.

As for `Cl.Nc1ccc(N2CCN(CC(O)COc3ccccc3C(=O)CCc3ccccc3)CC2)cc1` (racemic), the selectivity ratio in series [1] was above 10. Moreover, the Activity result with HEK293, in the series on Raji, in the series with BJ and with HepG2 was “Non-toxic” throughout.

For the molecule `Cl.O=C(CCc1ccc(F)cc1)c1ccccc1OCC(O)CN1CCOCC1` (racemic), the selectivity ratio in series [1] was above 10. Also, the Activity result in the series on HEK293, in the series with Raji, in the series on BJ and with HepG2 was “Non-toxic” throughout.

As for `CCN1CCN(CC(O)COc2ccc(F)cc2C(=O)CCc2ccc(F)cc2)CC1.Cl` (racemic), the selectivity ratio in series [1] is above 10. Further, the Activity result with HEK293, in the series on Raji, with BJ and with HepG2 was “Non-toxic” in each case.

As to `Cl.O=C(CCc1ccc(F)cc1)c1ccccc1OCC(O)CN1CCN(c2ccc(O)cc2)CC1` (racemic), the selectivity ratio in series [1] is above 10. Besides, the Activity entry with HEK293, with Raji, with BJ and in the series on HepG2 was “Non-toxic” throughout.

Take `Cl.O=C(CCc1ccccc1)c1cc(F)ccc1O`: the selectivity ratio in series [1] is above 10. Further, the Activity result with HEK293, with Raji, in the series on BJ and with HepG2 was “Non-toxic” throughout.

`Cl.O=C(CCc1ccccc1)c1cc(F)ccc1OCC(O)CN1CCNCC1` (racemic): in series [1], the selectivity ratio is above 10. Moreover, the Activity result in the series on HEK293, in the series on Raji, with BJ and with HepG2 was “Non-toxic” in each case.

With `COc1cccc(N2CCN(CC(O)COc3ccccc3C(=O)CCc3ccc(F)cc3)CC2)c1.Cl` (racemic), the selectivity ratio in series [1] is above 10. In addition, the Activity entry with HEK293, in the series with Raji, in the series on BJ and in the series with HepG2 was “Non-toxic” throughout.

Turning to `COc1ccc(N2CCN(CC(O)COc3ccc(F)cc3C(=O)CCc3ccccc3)CC2)cc1.Cl` (racemic), the selectivity ratio in series [1] is above 10. The Activity result in the series with HEK293, in the series with Raji, with BJ and with HepG2 was “Non-toxic” throughout.

For the molecule `CCCCN(CCCC)CC(O)COc1ccccc1C(=O)CCc1ccc(F)cc1.Cl` (racemic), the selectivity ratio in series [1] is above 10. Besides, the Activity result with HEK293, in the series with Raji, with BJ and in the series with HepG2 was “Non-toxic” in each case.

On to `CCCN(CCC)CC(O)COc1ccccc1C(=O)CCc1ccccc1.Cl` (racemic), for which the selectivity ratio in series [1] was above 10. For the same molecule, the Activity entry with HEK293, with Raji, with BJ and with HepG2 was “Non-toxic” throughout.

With `CCN(CC)CC(O)COc1ccccc1C(=O)CCc1ccc(F)cc1.Cl` (racemic), in series [1], the selectivity ratio was above 10. The Activity entry in the series on HEK293, in the series on Raji, in the series on BJ and with HepG2 was “Non-toxic” each time.

For the molecule `Cl.O=C(CCc1ccc(F)cc1)c1cc(F)ccc1OCC(O)CN1CCC(c2ccccc2)CC1` (racemic), the selectivity ratio in series [1] was above 10. The Activity result with HEK293, with Raji, in the series with BJ and in the series with HepG2 was “Non-toxic” throughout.
